Reference: publication PMC12195250, “Synthesis, Biological Evaluation, Molecular Dynamics, and QM-MM Calculation of Spiro-Acridine Derivatives Against Leishmaniasis” (Microorganisms, 2025)

Experiments:
J774A.1 macrophages = test: Cytotoxic effect in J774 macrophage cultures, MTT; format: cell-based; conditions: read-out: CC50 (50% cytotoxic concentration in J774 macrophage)
Method: J774A.1 macrophages (ATCC TIB-67) were kept cryopreserved in a Falcon tube containing 5 mL of DMEM (Dulbecco’s modified Eagle medium) culture medium (Gibco®), supplemented with 10% inactivated fetal bovine serum, 1% non-essential amino acids, and 1% gentamicin sulfate. The tube was centrifuged at 200 rpm for 10 min. Afterward, the supernatant was discarded, and the cells were resuspended in the culture medium and transferred to a culture bottle kept in an incubator at 37 °C with 5% CO2. The assays were carried out in triplicate using a 96-well plate to evaluate the cytotoxic effect of the selected spiro-acridine compounds on J774 macrophage cultures. The compounds were diluted and seeded at predetermined concentrations (32, 16, 8, 4, and 2 μg/mL), parallel to the distribution of 1.0 × 10^5 J774 macrophages per well. The plate was incubated for two hours in a 5% CO2 incubator at 37 °C. Only the cells were incubated in the negative control without the tested molecules. In contrast, the positive control was performed by incubating the macrophages with the commercial drug Amphotericin B®. Later, 10 μL of the MTT reagent was added per well, and the cultures were re-incubated for 4 h. Finally, 50 μL of DMSO was added to each well, and the absorbance was read on a SpectraMAX GeminiXS plate spectrophotometer (Molecular Devices LLC, San Jose, CA, USA) at a wavelength of 570 nm. […]

[1] = test system: J774 macrophages infected with L. amazonensis amastigotes; test: Cytokine profile by cytometry bead assay (CBA); format: cell-based; conditions: 24 h; for IL-6 expression: 8 µg/mL, versus untreated infected macrophages; for modulation of the IL-2 response: basal or infected macrophages, 2, 4 and 8 µg/mL; for IL-4 expression / IL-10 expression / TNF-α expression: infected macrophages, 2, 4 and 8 µg/mL; for TNF-α expression: versus untreated infected
Method: The assessment of the influence of spiro-acridine derivatives on the cytokine profile of immunological responses was carried out by the quantification of the cytokines IL-2, IL-4, IL-6, IL-10, IL-17A, INF-γ, and TNF-α in supernatants of cell cultures of J774 macrophages infected with L. amazonensis amastigotes through cytometry bead assay (CBA), according to the manufacturer’s instructions (BD Bioscience, Franklin Lakes, NJ, USA). The cells were adhered to a plate, infected with amastigotes of L. amazonensis, and treated with the spiro-acridines under analysis in the following concentrations: 2, 4, and 8 μg/mL. After the 24-h treatment period, 50 μL of the supernatant from each well was transferred to a conical tube, while 50 μL of the capture bead mixture and 50 μL of the detection reagent were added. The samples were incubated for 2 h at room temperature and protected from light. After incubation, 500 μL of washing buffer was added to each tube, followed by centrifugation for 5 min. The supernatant was discarded, and 300 μL of washing buffer was added. A calibration curve containing the following concentrations of each cytokine was added to the experiment: 0, 20, 40, 80, 156, 312.5, 625, 1250, 2500, and 5000 pg/mL. Uninfected and untreated macrophages were used as the negative control, while the untreated macrophages infected with L. amazonensis were used as the positive control. The fluorescence intensity in each sample was captured on the BD LRS II FORTESSA flow cytometer using the DIVA program version 7 (BD Bioscience), and the fluorescence data was processed using the FCAP array program version 3 (BD Bioscience). The experiments were performed in triplicate.

| SMILES | CC50 (J774A.1 macrophages) | IL-6 expression [1] | modulation of the IL-2 response [1] | IL-4 expression [1] | IL-10 expression [1] | TNF-α expression [1] | IL-17A level (Th17 response) ([1]; versus basal and parasite-infected macrophages) |
| --- | --- | --- | --- | --- | --- | --- | --- |
| N#CC1=CC2(c3ccccc3Nc3ccccc32)N(c2ccc(Cl)cc2)C1=O [ACMD-03, (E)1′-(4-chlorophenyl)-5′-oxo-1′, 5′-dihydro-10H-spiro{acridine-9,2′-pyrrole]-4′-carbonitrile] | 27.2 µM | significant decrease in IL-6 expression | did not demonstrate a modulation of the IL-2 response | Neither of the two molecules significantly influenced IL-4 expression | significantly increased the expression of IL-10 at concentrations of 4 and 8 µg/mL | significant reduction in TNF-α expression | significant increase in this interleukin at a concentration of 4 µg/mL |
| COc1ccc(/C=N/N2C(=O)C(C#N)=CC23c2ccccc2Nc2ccccc23)cc1 [AMTAC-02, (E)-1′-((4-methoxybenzylidene)amino)-5′-oxo-1′,5′-dihydro-10H-spiro[acridine-9,2′-pyrrole]-4′-carbonitrile] |  | significant decrease in IL-6 expression | did not demonstrate a modulation of the IL-2 response | Neither of the two molecules significantly influenced IL-4 expression | no significant increase in IL-10 expression | significant reduction in TNF-α expression |  |
